Measured values taken from patent US20060014740A1 (priority 2003, published 2006).
Counter-ions that a name gives are not always drawn. Like-named read-outs stand apart in the source and are kept apart here.

Experiments:
[1] = system: RH7777 rat hepatoma cells; assay: SRB cytotoxicity assay, RH7777 control cell line; assay type: cell-based; conditions: for IC50: control cell line, 96 h, read-out: IC50 RH7777
Experimental: (§1) For in vitro cytotoxicity screening, 1000 to 5000 cells were plated into each well of 96-well plates depending on growth rate, and exposed to different concentrations of a test compound for 96 h in three to five replicates. All the compounds were dissolved in dimethyl sulfoxide at 5 to 20 mM, and diluted to desired concentrations in complete culture medium. Cell numbers at the end of the drug treatment were measured by the SRB assay (Gududuru et al., “Synthesis and Biological Evaluation of Novel Cytotoxic Phospholipids for Prostate Cancer,” Bioorg. Med. Chem. Lett. 14:4919-4923 (2004); Rubinstein et at., “Comparison of in vitro Anticancer-Drug-Screening Data Generated with a Tetrazolium Assay Versus a Protein Assay Against a Diverse Panel of Human Tumor Cell Lines,” J. Naatl, Cancer Inst. 82:1113-1118 (1990), each of which is hereby incorporated by reference in its entirety). Briefly, the cells were fixed with 10% of trichloroacetic acid, stained with 0.4% SRB, and the absorbances at 540 nm was measured using a plate reader (DYNEX Technologies, Chantilly, Va.).
(§2) The antiproliferative activity of all the synthesized compounds was evaluated against five human prostate cancer cell lines and in RH7777 cells (negative control) using the sulforhodamine B (SRB) assay (see description in Example 5 above).
(§3) The chosen cell lines represent different basal levels of active AKT and LPL receptor expression (discussed later). Cells were exposed to a wide range of concentrations (0 to 100 μM) of the indicated compound for 96 h. Cell numbers at the end of treatment were measured using the sulforhodamine B (SRB) assay^5.
(§4) Cells were exposed to a wide range of concentrations (0 to 100 μM) of the particular compound for 96 h in 96 well plates. Cells were fixed with 10% trichloroacetic acid, washed five times with water. The plates were air dried overnight and fixed cells were stained with SRB solution. The cellular protein-bound SRB was measured at 540 nm using a plate reader. Cell numbers at the end of the treatment were measured.
as §4, with “96-well” for “96 well”, “calculated as a percentage of untreated control.” for “measured.”

[2] = system: DU-145 human prostate cancer cells; assay: SRB cytotoxicity assay, DU-145; assay type: cell-based; conditions: 96 h
Experimental: as §1, §2, §3, §4
as §4, with “96-well” for “96 well”, “calculated as a percentage of untreated control.” for “measured.”

[3] = system: PC-3 human prostate cancer cells; assay: SRB cytotoxicity assay, PC-3; assay type: cell-based; conditions: 96 h, read-out: IC50 PC-3
Experimental: as §1, §2, §3, §4
as §4, with “96-well” for “96 well”, “calculated as a percentage of untreated control.” for “measured.”

[4] = system: LNCaP human prostate cancer cells; assay: SRB cytotoxicity assay, LNCaP; assay type: cell-based; conditions: 96 h, read-out: IC50 LNCaP
Experimental: as §1, §2, §3, §4
as §4, with “96-well” for “96 well”, “calculated as a percentage of untreated control.” for “measured.”

[5] = system: PPC-1 human prostate cancer cells; assay: SRB cytotoxicity assay, PPC-1; assay type: cell-based; conditions: Homo sapiens, PPC-1, 96 h, read-out: IC50 PPC-1
Experimental: (§5) Dr. Mitchell Steiner at University of Tennessee Health Science Center, kindly provided PPG-1 and TSU-PrI cells.
as §1, §2, §3, §4
as §4, with “96-well” for “96 well”, “calculated as a percentage of untreated control.” for “measured.”

[6] = system: TSU-Pr1 human prostate cancer cells; assay: SRB cytotoxicity assay, TSU-Pr1; assay type: cell-based; conditions: 96 h, read-out: IC50 TSU-Pr1
Experimental: as §5, §1, §2, §3, §4
as §4, with “96-well” for “96 well”, “calculated as a percentage of untreated control.” for “measured.”

[7] = system: human breast cancer cell line (MCF-7); assay: SRB cytotoxicity assay, MCF-7; assay type: cell-based; conditions: Homo sapiens, MCF7; Table 8; breast cancer cell line; read-out: IC50 MCF-7
Experimental: as §1
(§6) In vitro cytotoxicity assay was performed by the same sulforhodamine B (SRB) assay (described above). The compounds shown in Table 8 below where tested for activity against the breast cancer and ovarian cancer cell lines.
as §3, §4

[8] = system: CaOv-3 human ovarian cancer cell line; assay: SRB cytotoxicity assay, CaOv-3; assay type: cell-based; conditions: Table 8
Experimental: as §1, §6

[9] = system: OVCAR-3 human ovarian cancer cell line; assay: SRB cytotoxicity assay, OVCAR-3; assay type: cell-based; conditions: Table 8
Experimental: as §1, §6

[10] = system: SKOv-3 human ovarian cancer cell line; assay: SRB cytotoxicity assay, SKOv-3; assay type: cell-based; conditions: Table 8
Experimental: as §1, §6

[11] = Rattus norvegicus, RH7777, Table 4
[12] = Homo sapiens, DU-145, read-out: IC50 DU-145, Table 4
[13] = Rattus norvegicus, RH7777, Table 3
[14] = Homo sapiens, DU-145, read-out: IC50 DU-145, Table 3

| Compound | IC50 [1, 11] [µM] | IC50 [2, 12] [µM] | IC50 ([3]; Homo sapiens, Table 4) [µM] | IC50 ([4]; Homo sapiens, LNCaP, Table 4) [µM] | IC50 ([5]; Table 4) [µM] | IC50 ([6]; Homo sapiens, TSU-Pr1, Table 4) [µM] | IC50 [7] [µM] | melting point [°C] | IC50 [1, 13] [µM] | IC50 [2, 14] [µM] | IC50 ([3]; Homo sapiens, Table 3) [µM] | IC50 ([4]; Homo sapiens, LNCaP, Table 3) [µM] | IC50 ([5]; Table 3) [µM] | IC50 ([6]; Homo sapiens, TSU-Pr1, Table 3) [µM] | also measured |
| --- | --- | --- | --- | --- | --- | --- | --- | --- | --- | --- | --- | --- | --- | --- | --- |
| CCCCCCCCCCCCCCCCCCNC(=O)[C@@H]1CSC(c2ccc([N+](=O)[O-])cc2)N1 (mixture of isomers) [Compound 21, (2RS, 4R)-2-(4-Nitro-phenyl)-thiazolidine-4-carboxylic acid octadecylamide] | ~20 | 15.3 | ~20 | 8.4 | 15.3 | 15.9 | 16.3 | 115 | – | – | – | – | – | – | – |
| CCCCCCCCCCCCCCCCCCNC(=O)[C@@H]1CSC(c2ccc(N(C)C)cc2)N1 (mixture of isomers) [Compound 13, (2RS, 4R)-2-(4-Dimethylamino-phenyl)-thiazolidine-4-carboxylic acid octadecylamide] | – | – | – | – | – | – | 13.5 | 75 | > 20 | 5.3 | 6 | 1.6 | 1.1 | 3 | – |
| CCCCCCCCCCCCCCCCCCNC(=O)[C@@H]1CSC(c2cccnc2)N1 (mixture of isomers) [Compound 11, (2RS, 4R)-2-Pyridin-3-yl-thiazolidine-4-carboxylic acid octadecylamide] | – | – | – | – | – | – | 9.3 | 94 | 10.5 | 7.5 | 9.2 | 3.6 | 2.9 | 7.8 | – |
| Cl.O=C(O)[C@@H]1CSC(c2ccoc2)N1 (mixture of isomers) [Compound 12-HCI, (2RS, 4R)-2-Furan-3-yl-thiazolidine-4-carboxylic acid Hydrochloride] | – | – | – | – | – | – | – | – | 10.4 | 6.6 | 8.1 | 1.7 | 1.1 | 4.2 | Fold less selective against RH7777 cell line than compound 5 [1]: 3 fold; IC50 ([8]; Homo sapiens, Caov-3): 7.7 µM; IC50 ([9]; Homo sapiens, OVCAR-3): 2.3 µM; IC50 ([10]; Homo sapiens, SK-OV-3): 5.4 µM |
| CCCCCCCCCCCCCCCCCCNC(=O)[C@@H]1CSC(c2ccccc2)N1S(C)(=O)=O (mixture of isomers) [Compound 29, (2RS,4R)-3-Methanesulfonyl-2-phenylthiazolidine-4-carboxylic acid octadecylamide] | > 20 | > 20 | > 20 | > 20 | > 20 | > 20 | > 20 | 55 | – | – | – | – | – | – | – |
| CCCCCCCCCCCCCCCCCCNC(=O)[C@@H]1CSC(c2c[nH]c3ccccc23)N1 (mixture of isomers) [Compound 10, (2RS, 4R)-2-(1H-Indol-3yl)-thiazolidine-4-carboxylic acid octadecylamide] | – | – | – | – | – | – | – | 125 | > 20 | 8.9 | 11.5 | 2.1 | 1.3 | 4.4 | – |
| CCCCCCCCCCCCCCCCCCNC(=O)[C@@H]1CSC(C2CCCCC2)N1 (mixture of isomers) [Compound 8, (2RS, 4R)-2-Cyclohexylthiazolidine-4-carboxylic acid octadecylamide] | – | – | – | – | – | – | ~20 | 60 | > 20 | > 20 | > 20 | 12.8 | 9.3 | > 20 | – |
| CCCCCCCCCCCCCCCCCCNC(=O)[C@@H]1CSC(c2cc(OC)c(OC)c(OC)c2)N1 (mixture of isomers) [Compound 17-HCI, (2RS, 4R)-2-(3,4,5-Trimethoxy-phenyl)-thiazolidine-4-carboxylic acid octadecylamide Hydrochloride] | – | – | – | – | – | – | – | – | 11.4 | 3.9 | 4 | 0.82 | – | 2.4 | IC50 ([8]; Homo sapiens, Caov-3): 4.4 µM; IC50 ([9]; Homo sapiens, OVCAR-3): 1.4 µM; IC50 ([10]; Homo sapiens, SK-OV-3): 2.7 µM |
| CCCCCCCCCCCCCCCCCCNC(=O)[C@@H]1CSC(c2ccc(C)cc2)N1 (mixture of isomers) [Compound 26, (2RS, 4R)-2 p-Tolyl-thiazolidine-4-carboxylic acid octadecylamide] | > 20 | 10.5 | 12.8 | 1.9 | 1.9 | 8 | 10.3 | 120 | – | – | – | – | – | – | – |
| CCCCCCCCCCCCCCCCCCNC(=O)[C@@H]1CSC(c2ccc(Br)cc2)N1 (mixture of isomers) [Compound 20, (2RS, 4R)-2-(4-Bromo-phenyl)-thiazolidine-4-carboxylic acid octadecylamide] | > 20 | 13.8 | 17.3 | 5.1 | 3.7 | 18.3 | 16.6 | 81 | – | – | – | – | – | – | – |
| CCCCCCCCCCCCCCCCCCNC(=O)[C@@H]1CSC(c2ccc(F)c(Br)c2)N1 (mixture of isomers) [Compound 25, (2RS, 4R)-2-(3-Bromo-4-fluoro-phenyl)-thiazolidine-4-carboxylic acid octadecylamide] | ~20 | 11.3 | 13.5 | 3 | 4.7 | 14 | 15.3 | 100 | – | – | – | – | – | – | – |
| CCCCCCCCCCCCCCCCCCNC(=O)[C@@H]1CSC(c2ccc(OC)c(OC)c2)N1 (mixture of isomers) [Compound 16-HCI, (2RS, 4R)-2-(3,4-Dimethoxy-phenyl)-thiazolidine-4-carboxylic add octadecylamide Hydrochloride] | – | – | – | – | – | – | – | – | – | – | – | – | – | – | IC50 ([1]; Table 3): 10.3 µM; IC50 ([2]; read-out: IC50 DU-145, Table 3): 4.5 µM; IC50 ([3]; Table 3): 5.2 µM; IC50 ([4]; Table 3): 0.85 µM; IC50 ([6]; Table 3): 2.4 µM; IC50 [8]: 5.5 µM; IC50 [9]: 1.2 µM; IC50 [10]: 3.6 µM |
| CCCCCCCCCCCCCCCCCCNC(=O)[C@@H]1CSC(c2ccccc2)N1C(C)=O (mixture of isomers) [Compound 28, (2RS, 4R)-3-Acetyl-2-phenylthiazolidine-4-carboxylic acid octadecylamide] | > 20 | ~20 | ~20 | 16.1 | 12.6 | > 20 | 16.3 | 90 | – | – | – | – | – | – | – |
| CCCCCCCCCCCCCCCCCCNC(=O)[C@@H]1CSC(Cc2ccccc2)N1 (mixture of isomers) [Compound 9, (2RS, 4R)-2-Benzylthiazolidine-4-carboxylic acid octadecylamide] | – | – | – | – | – | – | 18.7 | 80 | > 20 | 15.3 | 16.4 | 4.4 | 4 | 11.2 | – |
